Results on two compounds are retold here after patent US10745370B2, “Farnesyl transferase inhibitors and uses thereof” (MACKAY MEMORIAL HOSPITAL, priority 2016, dated 2020).

The subject of data set [1] is dendritic cells. In words: Trypan blue exclusion analysis of dendritic cells. The format is cell-based, human. As to conditions: 10 μM, seven days, FIG. 7. As to the method:
(§1) Mononuclear cells (MNCs) were separated from the peripheral blood of healthy donors obtained with written consent by use of Ficoll-Hypaque density centrifugation, followed by positive selection with magnetic anti-CD14 microbeads.
(§2) The isolated CD14^+ cells were cultivated in Minimum Essential Medium (MEM medium) supplemented with 10% fetal bovine serum (FBS), 100 ng/ml granulocyte-macrophage colony-stimulating factor (GM-CSF, Gentaur), and 50 ng/ml interleukin-4 (IL-4, R&D), and kept in an environment of 37° C. with 5% CO2/95% air.
(§3) To evaluate the effects of the present compound on dendritic cells, the CD14^+ cells were respectively treated with 10 μM of test compound (i.e., Mib-5, Mib-6, Mib-7, Mib-8, Mib-9, and Mib-10) on day 1. Then, on day 3, the cultured medium in each well was replenished by adding half the volume of the cultured medium containing the same treatment as indicated above. Then, on day 6, a cytokine cocktail containing IL-1, IL-6, and tumor necrosis factor-α (TNF-α) was added to induce maturation. On day 7, the differentiated dendritic cells were collected and subjected to further assays, including viability assay, morphology observation, and cell marker staining.
The dye exclusion test is used to determine the number of viable cells present in a cell suspension. […] In this test, the cells were first treated with a test compound (i.e., Mib-5, 6, 7, 8, 9 or 10) for a certain period of time (e.g., 72 hours), then the cells were harvested and re-suspended in suitable buffer solution. The cell suspension was then mixed with trypan blue dye and then visually examined to determine whether cells had taken up or excluded the dye. A viable cell will have a clear cytoplasm, whereas a nonviable cell will have a blue cytoplasm. The concentration required to reduce viability by 50% (IC50) after 72 hours was extrapolated from the dose-response curves by different concentrations of the test compound using a second-order polynomial regression model and analyzing with SigmaPlot Software (Systat Software Inc., San Jose, Calif.).
(§4) In this example, the effects of the present compounds on dendritic cells were investigated. Briefly, the dendritic cells were respectively treated with 10 μM of Mib-5, Mib-6, Mib-7, Mib-8, or Mib-10. Seven days later, the cells were harvested and subjected to analysis of morphology observation, cell viability, and/or cell marker expression.

Data set [2] deals with dendritic cells. In words: Cell marker expression on dendritic cells, flow cytometry. The format is cell-based, human. The following applies: 10 μM; for expression of CD1a, differentiation marker of dendritic cells: FIG. 9; for expression of CD83, maturation marker of dendritic cells: FIG. 10. Here is the method:
as §1, §2, §3
(§5) The expression of various types of cell markers, such as CD14, CD206, and CD80 expressed on the surface of macrophages, and CD1a, CD14, CD83, and HLA-DR expressed on the dendritic cells, were respectively detected by fluorescein isothiocyanate (FITC) and phycoerythrin (PE)-conjugated monoclonal antibodies in FACS caliber flowcytometer. Monoclonal antibodies used in this examples included anti-CD14 (IgG-FITC), anti-CD206 (IgG-FITC), anti-CD80-PE, anti-CD1a-PE, anti-CD83-PE and anti-human leukocyte antigen (HLA)-DR-PE. Results were analyzed by CellQuest software.
as §4
In general terms: Flow cytometry measures light scatter and fluorescence of single cells or particles in a stream.

Data set [3] deals with dendritic cells. In words: Morphology of dendritic cells by Liu's staining. It is filed as cell-based, human. The following applies: 10 μM, seven days, FIG. 8. As to the method:
as §1, §2, §3
Cells were transferred to a glass coverslide and covered with solution A (0.5 g of methylene blue and 1.7 g of Eosin yellow dissolved in 1,000 ml of ethanol). After 45 seconds, solution B (1.3 g of azure, 1.4 g of methylene blue, 23.38 g of Na2HPO4, 6.5 g of KH2PO4, dissolved in 1,000 ml of distilled water) was added in the proportion of 2 parts of B to 1 part of A. Mixed the solutions well by blowing the surface. The slide was left standing for 90 seconds and then washed off the staining solution rapidly by running water. The morphology of stained cells was then examined under microscope.
as §4

For data set [4], the target named is T1, rat PFTase (Rattus norvegicus, UniProt Q02293+Q04631).
T1 construct: purchased Jena Biosciences
In words: Inhibition of farnesyl transferase (fluorescence assay). The format is biochemical. The following applies: mean ± SD of three independent experiments. Here is the method: The assay was carried out in 384-well microplates with a final volume of 20 μl by the method modified from the previous report (Long et al., 2009). Briefly, 10 nM of rat PFTase (Jena Biosciences, Jena, Germany) was incubated with the tested compound or DMSO (1%) for 15 min, and then the mixture was added in a solution (50 mM Tris-HCl, pH 7.5, 5 mM MgCl2, 5 mM DTT, 0.1 mM ZnCl2, 0.2% octyl-β-D-glucopyranoside (Sigma, St. Louis, Mo.), 10 μM PFTase substrate dansyl-Gly-Cys-Val-Leu-Ser-OH, and 10 μM farnesyl pyrophosphate (Sigma, St. Louis, Mo.)) to initiate the reaction. The reaction was incubated at 37° C. for 30 min, and the fluorescence was detected by a M5 plate reader (Molecular Devices, CA, USA) at 340 nm excitation and 505 nm emission.

The subject of data set [5] is M1 macrophages. In words: Cell marker expression on M1 macrophages, flow cytometry. The format is cell-based, human. As to conditions: for CD14: M1 population after treatment: Table 5; for CD80: change in M1 population: Table 6; for CD206: change in M1: Table 7; for CD206 expression on M1 macrophages: control 14.27%; for CD80 expression on M1 macrophages: control 71.34%; for CD14 expression on M1 macrophages: control 99.83%. As to the method: (§6) M1 differentiation of freshly isolated CD14^+ cells was induced by the addition of lipopolysaccharide (LPS), while M2 differentiation of freshly isolated CD14^+ cells was induced by the addition of IL-4. Then, the present compounds (e.g., Mib-5, 6, 7, 8, 9, or 10) were added at the indicated dosages. 6 days later, the population of the differentiated macrophages were then determined by cell viability analysis.
as §5

Data set [6] deals with M1 macrophages. In words: Differentiation analysis, cell viability of M1 macrophages. The format is cell-based, human. The following applies: for Cell viability of M1 macrophages: LPS-induced M1 differentiation, 6 days, control 100%; for change in M1 population of macrophages compared with control: Table 4. As to the method:
as §6, with “analysis. The cell viability was measured by cell counting kit-8 (CCK-8, Sigma). The half maximal inhibitory concentrations (IC50) of the test compounds on macrophages or dendritic cells were calculated.” for “analysis.”

Where “and” joins values, the source holds several entries; their conditions need not be identical. Identical values can stand only once.

As to `COC1=CC(=O)[C@@]2(c3cc(=O)c4ccc(OC)cc4o3)[C@H](C[C@]3(C)[C@@H](C(=O)O)CC=C4[C@H]3CCCC4(C)C)C(C)=CC[C@H]2C1=O` [Mib-5], in data set [1], the “levels of viable dendritic cells” value is on record as “reduced”. For the same compound, in data set [2], the “expression of CD1a, differentiation marker of dendritic cells” value is listed as “inhibited” and the “expression of CD83, maturation marker of dendritic cells” value was “inhibited”. Besides, the “dendritic cell morphology compared with control group” value in data set [3] was “cell death reflected in morphology changes, and less dendritic process”. The IC50 – broadly, the midpoint of a concentration-inhibition curve – in data set [4] was < 10 µM and 7.51 µM. In addition, in data set [5], the “CD14: M1 population after treatment” value is “remained relatively unchanged”, the “CD80: change in M1 population” value is reported as “reduction”, the “CD206: change in M1” value is “significant decrease” and the “CD206 expression on M1 macrophages” value was 5.41%. For the same compound, in data set [5], the “CD80 expression on M1 macrophages” value stood at 11.94% and the “CD14 expression on M1 macrophages” value came to 97.03%. Moreover, in data set [6], the “Cell viability of M1 macrophages” value was 63.5% and the “change in M1 population of macrophages compared with control” value was “significant reduction”.
On to `COC1=CC(=O)[C@@]2(c3cc(=O)c4c(O)cc(O)cc4o3)[C@H](C[C@]3(C)[C@@H](C(=O)O)CC=C4[C@H]3CCCC4(C)C)C(C)=CC[C@H]2C1=O` [Mib-7], for which the “levels of viable dendritic cells” value in data set [1] was “reduced”. In addition, in data set [2], the “expression of CD1a, differentiation marker of dendritic cells” value is on record as “inhibited” and the “expression of CD83, maturation marker of dendritic cells” value is reported as “inhibited”. Besides, the “dendritic cell morphology compared with control group” value in data set [3] was “cell death reflected in morphology changes, and less dendritic process”. The concentration for half-maximal inhibition (IC50) in data set [4] was < 10 µM and 8.46 µM. For the same compound, in data set [5], the “CD14: M1 population after treatment” value is given as “remained relatively unchanged”, the “CD80: change in M1 population” value is given as “reduction”, the “CD206: change in M1” value is “significant decrease” and the “CD206 expression on M1 macrophages” value is recorded as 4.9%. Also, in data set [5], the “CD80 expression on M1 macrophages” value stood at 23.04% and the “CD14 expression on M1 macrophages” value worked out at 98.66%. For the same compound, in data set [6], the “Cell viability of M1 macrophages” value turned out to be 82.5% and the “change in M1 population of macrophages compared with control” value is on record as “decrease”.
